Results as given in ChEMBL document CHEMBL1129525 (J Med Chem, 1996).

Legend:
Dihydrofolate reductase [1] = target: T1, Dihydrofolate reductase (Pneumocystis carinii, UniProt P16184)
T1 sequence (P16184 whole entry): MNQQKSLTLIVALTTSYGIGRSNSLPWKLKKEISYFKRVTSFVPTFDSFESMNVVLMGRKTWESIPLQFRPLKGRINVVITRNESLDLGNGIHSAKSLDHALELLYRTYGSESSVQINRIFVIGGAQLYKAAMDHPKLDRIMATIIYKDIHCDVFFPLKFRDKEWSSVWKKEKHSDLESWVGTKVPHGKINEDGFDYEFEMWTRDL
Description: Inhibitory activity against Pneumocystis carinii dihydrofolate reductase

Dihydrofolate reductase [2] = target: T2, Dihydrofolate reductase (Rattus norvegicus, UniProt Q920D2)
T2 sequence (Q920D2 whole entry): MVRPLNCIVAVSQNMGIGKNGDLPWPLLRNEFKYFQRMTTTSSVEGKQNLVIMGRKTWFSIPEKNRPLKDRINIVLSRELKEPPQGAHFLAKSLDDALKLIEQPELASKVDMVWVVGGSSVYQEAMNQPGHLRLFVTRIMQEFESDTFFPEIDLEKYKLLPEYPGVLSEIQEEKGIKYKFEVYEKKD
Description: Inhibitory activity against rat liver dihydrofolate reductase

Toxoplasma gondii [3] = assay: Inhibition of Toxoplasma gondii cell growth; type: functional, organism-based
[4] = target: T3, Bifunctional dihydrofolate reductase-thymidylate synthase (Toxoplasma gondii, UniProt Q07422)
T3 sequence (Q07422 whole entry): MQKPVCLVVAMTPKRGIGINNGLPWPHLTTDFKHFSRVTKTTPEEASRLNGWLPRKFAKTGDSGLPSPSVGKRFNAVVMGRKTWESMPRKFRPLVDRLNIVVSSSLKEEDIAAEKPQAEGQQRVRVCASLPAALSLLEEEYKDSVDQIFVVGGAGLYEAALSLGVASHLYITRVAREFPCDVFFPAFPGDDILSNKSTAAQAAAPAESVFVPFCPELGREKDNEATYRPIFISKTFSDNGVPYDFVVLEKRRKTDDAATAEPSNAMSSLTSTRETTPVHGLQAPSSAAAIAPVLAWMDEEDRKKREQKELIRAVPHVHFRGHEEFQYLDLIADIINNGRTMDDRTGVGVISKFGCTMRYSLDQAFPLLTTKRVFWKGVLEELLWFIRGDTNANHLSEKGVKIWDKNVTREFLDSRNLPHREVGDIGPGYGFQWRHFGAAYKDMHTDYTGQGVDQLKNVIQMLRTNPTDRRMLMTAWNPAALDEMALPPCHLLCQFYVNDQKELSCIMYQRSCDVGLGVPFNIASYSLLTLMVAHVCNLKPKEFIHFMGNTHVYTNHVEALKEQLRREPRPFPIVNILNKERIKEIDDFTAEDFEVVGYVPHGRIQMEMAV
Description: Inhibitory activity against Toxoplasma gondii dihydrofolate reductase

Toxoplasma gondii [5] = assay: Inhibitory activity against Toxoplasma gondii cell growth(ca denotes calculated value); type: functional, organism-based

With `COc1cc(NCc2cnc3nc(N)nc(N)c3c2C)cc(OC)c1` as the molecule, how does the IC50 (Dihydrofolate reductase [1]) read?
The IC50 was 49 nM.

And the IC50 (Dihydrofolate reductase [2])?
The IC50 was 31 nM.

And the IC50 (Toxoplasma gondii [3])?
Its IC50 is 60 nM.

And the IC50 [4]?
Its IC50 is 3.5 nM.

What does the source list for `Cc1c(CSc2cccc3ccccc23)cnc2nc(N)nc(N)c12`?
IC50 (Dihydrofolate reductase [1]): 290 nM; IC50 (Dihydrofolate reductase [2]): 550 nM; IC50 (Toxoplasma gondii [3]): 40 nM; IC50 [4]: 30 nM

Which results are given for `COc1cccc(C)c1NCc1cnc2nc(N)nc(N)c2n1`?
IC50 (Dihydrofolate reductase [1]): 15800 nM; IC50 (Dihydrofolate reductase [2]): 5700 nM; IC50 (Toxoplasma gondii [3]): 5000 nM; IC50 [4]: 1850 nM

With `COc1ccc(C)c(NCc2cnc3nc(N)nc(N)c3c2C)c1` as the molecule, how does the IC50 (Dihydrofolate reductase [1]) read?
The IC50 was 38 nM.

What about the IC50 (Dihydrofolate reductase [2]) of the same molecule?
The IC50 was 150 nM.

And the IC50 (Toxoplasma gondii [3])?
Its IC50 is 30 nM.

And the IC50 [4]?
The IC50 was 23 nM.

With `Nc1nc(N)c2nc(CSc3ccc(Cl)cc3)cnc2n1` as the molecule, how does the IC50 (Dihydrofolate reductase [1]) read?
The IC50 was 42100 nM.

What about the IC50 (Dihydrofolate reductase [2]) of the same molecule?
The IC50 was 14300 nM.

And the IC50 (Toxoplasma gondii [3])?
The IC50 was over 10000 nM.

And the IC50 [4]?
The IC50 was 16800 nM.

Which IC50 (Dihydrofolate reductase [1]) does the source give for `CCOc1ccc(OCC)c(N(C)Cc2cnc3nc(N)nc(N)c3c2C)c1` here?
Its IC50 is 167 nM.

And the IC50 (Dihydrofolate reductase [2])?
Its IC50 is 530 nM.

And the IC50 (Toxoplasma gondii [3])?
The IC50 was 60 nM.

And the IC50 [4]?
Its IC50 is 29 nM.

How did the IC50 (Dihydrofolate reductase [1]) turn out when `CCOc1ccc(OCC)c(NCc2cnc3nc(N)nc(N)c3c2C)c1` was run?
The IC50 was 125 nM.

And the IC50 (Dihydrofolate reductase [2])?
Its IC50 is 370 nM.

What about the IC50 (Toxoplasma gondii [3]) of the same molecule?
Its IC50 is 60 nM.

What about the IC50 [4] of the same molecule?
Its IC50 is 22 nM.

Which IC50 (Toxoplasma gondii [5]) does the source give for `COc1cc(NCc2ccc3nc(N)nc(N)c3c2C)cc(OC)c1OC` [TRIMETREXATE] here?
Its IC50 is 20 nM.
